Test results published in patent publication US20080070256A1, “Non-Human Animal Models for B-cell Non-Hodgkin's Lymphoma and Uses Thereof” (NATIONAL JEWISH MEDICAL AND RESEARCH CENTER, priority 2006, published 2008).

How the values were obtained:
[1] = system: tumors derived from Eμ-MYC mice; assay: In vivo drug candidate test, transplanted Eμ-MYC tumors (no surface BCR); parameters: species or system mouse; details: treated for 7 days, starting 21 days after transplant
Text: (§1) Cohorts of age and sex matched, syngeneic mice (C57/BL6) are given transplants of tumor cells administered by tail vein injection (inoculum ranges from 10^2-10^6 cells, but all of the mice in one cohort usually get the same dose of cells). The mice are observed daily for 14-21 days for presentation of externally evident clinical signs of hematological malignancies. These include splenomegaly and lymphadenopathy, dehydration, scruffy fur, hunched posture, labored breathing, and an ascending hind limb paralysis. When the mice are visibly sick, they begin treatment with the drug candidate. The mice are either analyzed 24 hours after the last dose of drug in order to ascertain the degree of remission caused by the drug, in an acute manner, or left in the vivarium to determine the extent of survival that is afforded by the treatment, over the normal rate of mortality for untreated, tumor-bearing mice.
In this experiment, cohorts of 10 mice each were given transplants of tumors derived from Eμ-MYC mice.

[2] = system: murine BL cell lines (TBL-1, TBL-8, TBL-9, TBL-14); assay: MTS viability assay, murine BL cell lines; type: cell-based, mouse; details: 24 hours
Experimental: (§2) The inventors obtained a highly specific pharmacological inhibitor of Syk through a collaboration with Rigel Pharmaceuticals. […] Also tested were the effects of the Syk kinase inhibitor on primary murine BL the inventors obtained from triply transgenic mice (Example 2). In addition, the effects of R408 were tested on three cell lines derived from human BL tumors (Raji, Ramos and Daudi). […] The cells and drug were incubated at a final volume of 200 μl in each well. Each condition was set up in triplicate wells, in any one experiment. […] The plates were read with a Molecular Dynamics ELISA plate reader, at OD 490. The data presented in FIGS. 29A-29D is from one experiment, representative of three independent assays. The error bars represent the standard deviations. […] The cells were cultured for 22 hours with the compound, and pulsed for the last 2 hours with MTS reagent. The O.D.490 absorbance of the wells was determined 24 hours after the beginning of the experiment. All conditions were tested in triplicate wells. The error bars represent the standard deviations of the triplicate wells.
Using this approach, four primary tumors derived from Eμ-MYC/BCR^HEL/sHEL mice have been tested, three cell lines derived from such tumors (TBL-1, TBL-8 and TBL-14), as well as a T-cell lymphoma cell line (iTLS-10). […] The cells were incubated for an MTS assay as described elsewhere herein. […]

Raji cells [3] = assay: MTS viability assay on Raji cells; type: cell-based, human; details: increasing concentrations
Experimental: as §2
In order to validate the observations obtained in the mouse models of BL, the inventors tested whether the pharmacological inhibition of Syk in a human BL cell line (Raji) also results in the reduced viability of those cells. […]

Raji cells [4] = assay: Apoptosis of Raji cells by propidium iodide stain (subdiploid population); type: cell-based, human; details: exposure in vitro
Text: In order to validate the observations obtained in the mouse models of BL, the inventors tested whether the pharmacological inhibition of Syk in a human BL cell line (Raji) also results in the reduced viability of those cells. […] Similar results are observed upon the shRNA-mediated disruption of Syk expression in Raji cells.

[5] = system: tumors derived from Eμ-MYC/BCR^HEL/sHEL mice; assay: In vivo drug candidate test, transplanted murine BL tumors; parameters: species or system mouse; details: transient 7 day treatment, starting 20 days after transplant
Text: as §1
In another experiment, depicted in FIG. 33, cohorts of 10 mice each were given transplants of tumors derived from Eμ-MYC/BCR^HEL/sHEL (resemble human BL) mice. 20 days later, when the mice presented externally evident signs of disease, they were treated for 7 days with R788. This cohort was observed over time for kinetics and time frame of mortality following transient treatment with R788.

[6] = system: tumors derived from Eμ-MYC/BCR^HEL mice; assay: In vivo drug candidate test, transplanted murine B-CLL tumors; parameters: species or system mouse
Text: In this experiment, cohorts of 20 mice each were given transplants of tumors derived from Eμ-MYC/BCR^HEL (resemble human B-CLL) mice. […] Part of the cohort was euthanized and evaluated for remission acutely (left set of graphs).

[7] = system: Eμ-MYC/BCR^HEL/sHEL tumors
Experimental: (§3) Groups of 6 mice were utilized for each of the experimental protocols. Four mice bearing transplanted tumors, and two age and sex matched wild type mice were treated with the same drug and equal frequency. The transplant recipient mice were held until tumors became clinically apparent (approximately 100 days for the Eμ-MYC tumors, 58 days for the Eμ-MYC/BCR^HEL tumors, 21 days for the Eμ-MYC/BCR^HEL/sHEL tumors, and 14 days for the MMTV-rtTA/TRE-MYC/BCR^HEL/sHEL tumors). The mice then received daily injections of the indicated agents for 7 days, as applicable. Mice were either euthanized 24 hours after the last injection of drug, or held indefinitely to ascertain survival. Lymph nodes, spleens and bone marrows were collected and processed to generate single cell suspensions. The cells were counted as described above. An aliquot from the cell suspensions was stained with antibodies for B220, Thy 1.2, Mac-1, IgM^a, B7-2, and CD69, in order to determine the proportion of B-cells, T-cells and myeloid cells, as well as the activation status of the HEL-reactive B-cells. Treatments were performed with cyclosporin A (Bedford laboratories, Bedford Ohio) (2 mg/kg/day), FK506 (Prograf, Fujisawa Healthcare, Deerfield, Ill.) (2 mg/kg/day), rapamycin (Biomol, King of Prussia, Pa.) (2 mg/kg/day), and cyclophosphamide (1 mg/kg/day) (Bristol-Myers Squibb, Princeton, N.J.). The therapeutics were suspended in PBS, sterilized by filtration through a 0.22 μm membrane, and administered intravenously through the tail vein.
(§4) 10^6 cells obtained from tumor-bearing spleen or lymph nodes were transplanted into cohorts of 4-10 mice. […] The tumor bearing and control wild-type mice were then treated daily for seven days with intravenous injections of the various drugs. Mice were either euthanized 24 hours after the last injection of drug, or held indefinitely to ascertain survival. The analysis of tumor burden was performed with cells obtained from lymph nodes and spleens.

[8] = system: tumors from the jaws of MMTV-rtTA/TRE-MYC/BCR^HEL/sHEL mice; details: daily intravenous injections for 7 days
Experimental: as §3, §4

Eμ-MYC/BCR^HEL tumors = assay: Therapeutic trial on transplanted Eμ-MYC/BCR^HEL tumors (B-CLL model); type: in vivo, mouse; details: daily intravenous injections for 7 days
Experimental: as §3, with “The therapeutics were suspended in PBS, sterilized by filtration through a 0.22 μm membrane, and administered intravenously through the tail vein.” left out

[9] = system: MMTV-rtTA/TRE-MYC/BCR^HEL/sHEL tumors (DLBCL); details: mouse, in vivo
Experimental: (§5) Tumor cells were harvested from lymph nodes and spleens and transplanted. The recipient mice were held until tumors became clinically apparent. Tumor recipient (clear bars) and wild type (filled bars) mice then received daily injections of the indicated drugs for 7 days of either cyclosporine A (csa), FK506, rapamycin (rap) or cyclophosphamide (cyph). The mice were euthanized 24 hours after the last injection of drug, and lymph nodes were harvested for analysis of either total number of cells or surface markers of donor cells (not shown).
(§6) Tumor cells were harvested from lymph nodes and spleens and transplanted as described. The recipient mice were held until tumors became clinically apparent. The mice were then either maintained on a normal mouse diet, or switched on to a diet containing doxycycline, that shut off MYC overexpression. The mice were euthanized at the indicated times, and the lymph nodes were collected, used to generate single cell suspensions, cell counts and flow cytometric analysis.
as §3, §4

[10] = system: MMTV-rtTA/TRE-MYC/BCR^HEL/sHEL tumors (FLL); details: mouse, in vivo
Experimental: as §5, §6, §3, §4

[11] = system: Eμ-MYC, Eμ-MYC/BCR^HEL/sHEL and MMTV-rtTA/TRE-MYC/BCR^HEL/sHEL jaw tumors; details: mouse, in vivo
Experimental: as §3

[12] = daily intravenous injections for 7 days

COc1cc(Nc2ncc(F)c(Nc3ccc4c(n3)NC(=O)C(C)(C)O4)n2)cc(OC)c1OC [R406]
survival of tumor-bearing mice [1]: does not extend the survival
cell viability (MTS) [2]: susceptible
viability of Raji cells (MTS) (Raji cells [3]): dose response decrease in viability
apoptosis (subdiploid population, propidium iodide) (Raji cells [4]): undergo apoptosis

COc1cc(Nc2ncc(F)c(Nc3ccc4c(n3)N(COP(=O)(O)O)C(=O)C(C)(C)O4)n2)cc(OC)c1OC [R788]
survival of tumor-bearing mice [1]: perished at the same rate and time frame as their untreated, tumor-bearing counterparts
survival versus untreated counterparts [5]: at least twice as long
survival versus untreated counterparts ([6]; transient 7 day treatment): twice as long
tumor burden (number of cells in lymph nodes and spleens) ([6]; treated for 7 days, starting 24 days after transplant): significantly decreased the tumor burden

O=P1(N(CCCl)CCCl)NCCCO1 (stereo not shown) [cyclophosphamide]
remission ([7]; after seven-day treatment): brief remission
survival compared with untreated tumor-bearing mice ([7]; after seven-day treatment, observed 100 days): died more rapidly than did untreated, tumor-bearing mice
response of transplanted Eμ-MYC/BCR^HEL/sHEL tumors to drug [7, 12]: responded
response of transplanted MMTV-rtTA/TRE-MYC/BCR^HEL/sHEL jaw tumors to drug [8]: responded
response of transplanted Eμ-MYC/BCR^HEL tumors to drug (Eμ-MYC/BCR^HEL tumors): responded
remission [9]: brief remission
survival compared with untreated tumor-bearing mice [9]: died more rapidly than did untreated, tumor-bearing mice
response of transplanted MMTV-rtTA/TRE-MYC/BCR^HEL/sHEL tumors to drug ([9]; iv): responded
remission [10]: brief remission
survival compared with untreated tumor-bearing mice [10]: died more rapidly than did untreated, tumor-bearing mice
response of transplanted MMTV-rtTA/TRE-MYC/BCR^HEL/sHEL tumors to drug ([10]; iv): responded
tumor regression (Eμ-MYC tumors; [12]): tumor regression in all animals
response of transplanted Eμ-MYC tumors to drug (tumor burden, lymph nodes and spleens) (Eμ-MYC tumors; daily intravenous injections for 7 days, analysed 24 hours after last injection): strong response
general cytotoxicity (reduction in T-cells, myeloid cells, non-transgenic B-cells) (Eμ-MYC tumors; tumor-bearing mice, 7 days treatment): more general cytotoxicity
general cytotoxicity (reduction in T cells, myeloid cells, non-transgenic B cells) [11]: more general cytotoxicity
response of the transplanted tumors to drug [11]: strong response
tumor regression [11]: tumor regression in each instance
